In US8377424B2, “Treatment of periodontal disease” (Mars, Incorporated, priority 1996, dated 2013):
Each block holds one compound with its values, some of them ahead of it.

Columns and labels:
[1] = Rancimat oxidative stability test of peanut oil; conditions: Rancimat 100° C., 20 cc/min air, control 10.5 ± 0.7
Description: The procedures described in Examples 1, 2 and 3 were used to prepare cocoa extracts which were manipulated further to produce two fractions from gel permeation chromatography. These two fractions are actually combined fractions A through C, and D and E (See FIG. 1) whose antioxidant properties were compared against the synthetic antioxidants BHA and BHT.
Peanut Oil was pressed from unroasted peanuts after the skins were removed. 50 μL of methanol solubilized antioxidant was added to each sample to aid in dispersion of the antioxidant. A control sample was prepared with 50 μL of methanol containing no antioxidant.
The samples were evaluated in duplicate, for oxidative stability using the Rancimat stability test at 100° C. and 20 cc/min of air. Experimental parameters were chosen to match those used with the Active oxygen Method (AOM) or Swift Stability Test (Van oosten et al., 1981). Results are reported in Table 8 as hours required to reach a peroxide level of 100 meq.

[2] = tested on: Helicobacter pylori; test: Disk diffusion bioassay, H. pylori; type: cell-based; conditions: control disk containing 80 ug metronidazole
Description: (§1) A study was conducted to evaluate the antimicrobial activity of procyanidin oligomers against Helicobacter pylori and Staphylococcus aureus. Pentamer enriched material was prepared as described in Example 13, Method A and analyzed as described in Example 14, Method C, where 89% was pentamer, and 11% was higher oligomers (n is 6 to 12). Purified pentamer (96.3%) was prepared as described in Example 14, Method D.
(§2) Helicobacter pylori and Staphylococcus aureus were obtained from the American Type Culture Collection (ATCC). For H. pylori, the vial was rehydrated with 0.5 mL Trypticase Soy broth and the suspension transferred to a slant of fresh TSA containing 5% defibrinated sheep blood. The slant was incubated at 37° C. for 3 to 5 days under microaerophilic conditions in anaerobic jars (5 to 10% carbon dioxide; CampyPakPlus, BBL). When good growth was established in the pool of broth at the bottom of the slant, the broth was used to inoculate additional slants of TSA with sheep blood. Because viability decreased with continued subculturing, the broth harvested from the slants was pooled and stored at −80° C. Cultures for assay were used directly from the frozen vials. […]
(§3) A cell suspension of each culture was prepared (H. pylori, 10^8 to 10^9 cfu/mL; S. aureus 10^6 to 10^7 cfu/mL) and 0.5 mL spread onto TSA plates with 5% sheep blood. […] Zones of inhibition were measured following outgrowth.

[3] = tested on: Staphylococcus aureus; test: Disk diffusion bioassay, S. aureus; type: cell-based; conditions: control disk containing 30 ug vancomycin
Description: as §1, §2, §3

Oxidative Stability of Peanut Oil, hours required to reach a peroxide level of 100 meq, average ([1]; 20 ppm): 16.5 ± 2.1 h
Oxidative Stability of Peanut Oil, hours required to reach a peroxide level of 100 meq, average ([1]; 100 ppm): 12.5 ± 2.1 h
SMILES: Cc1cc(C(C)(C)C)c(O)c(C(C)(C)C)c1 [BHT, Butylated Hydroxytoluene]

SMILES: Cc1ncc([N+](=O)[O-])n1CCO [Metronidazole, metronidazole]
H. pylori Inhibition [2]: 11 mm

SMILES: CN[C@H](CC(C)C)C(=O)N[C@H]1C(=O)N[C@@H](CC(N)=O)C(=O)N[C@H]2C(=O)N[C@H]3C(=O)N[C@H](C(=O)N[C@H](C(=O)O)c4cc(O)cc(O)c4-c4cc3ccc4O)[C@H](O)c3ccc(c(Cl)c3)Oc3cc2cc(c3O[C@@H]2O[C@H](CO)[C@@H](O)[C@H](O)[C@H]2O[C@H]2C[C@](C)(N)[C@H](O)[C@H](C)O2)Oc2ccc(cc2Cl)[C@H]1O [Vancomycin, vancomycin]
S. aureus Inhibition [3]: 15 mm
